Experimental data: PubChem BioAssay (NCI)
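96-well plates; 48 h exposure; 5 concentrations. Endpoints by linear interpolation between flanking doses. Not reached: highest tested concentration assigned. At the GI50, growth is halved. Definition used: TGI = concentration required for complete inhibition of growth.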

What was measured:
Test in all cases: DTP human tumour cell line panel, 48 h
HOP-62 NSCLC = tested on: HOP-62 NSCLC
CCRF-CEM leukemia = tested on: CCRF-CEM leukemia
CAKI-1 renal = tested on: CAKI-1 renal
PC-3 prostate = tested on: PC-3 prostate
RPMI-8226 leukemia = tested on: RPMI-8226 leukemia
EKVX NSCLC = tested on: EKVX NSCLC
OVCAR-3 ovarian = tested on: OVCAR-3 ovarian
COLO 205 colon = tested on: COLO 205 colon
NCI-H522 lung = tested on: NCI-H522 lung
UO-31 renal = tested on: UO-31 renal

Row | Compound | TGI (HOP-62 NSCLC) | TGI (CCRF-CEM leukemia) | TGI (CAKI-1 renal) | TGI (PC-3 prostate) | TGI (RPMI-8226 leukemia) | TGI (EKVX NSCLC) | TGI (OVCAR-3 ovarian) | TGI (COLO 205 colon) | TGI (NCI-H522 lung) | TGI (UO-31 renal) | GI50 (HOP-62 NSCLC) | GI50 (CCRF-CEM leukemia) | GI50 (CAKI-1 renal) | GI50 (PC-3 prostate) | GI50 (RPMI-8226 leukemia) | GI50 (EKVX NSCLC) | GI50 (OVCAR-3 ovarian) | GI50 (COLO 205 colon) | GI50 (NCI-H522 lung) | GI50 (UO-31 renal)
1 | Cc1ccc2nc(-c3ccc(NC(=O)c4ccc(N)cc4)c(S(=O)(=O)O)c3)sc2c1 | > 100 µM | > 100 µM | > 100 µM | > 100 µM | > 100 µM | > 100 µM | > 100 µM | > 100 µM | > 100 µM | > 100 µM | – | – | – | – | – | – | – | – | – | –
2 | CC1=CC(O)C(C(O)(C(F)(F)F)C(F)(F)F)C(C)(C)C1 (stereo not given) | > 10 µM | > 10 µM | > 10 µM | > 10 µM | > 10 µM | > 10 µM | > 10 µM | > 10 µM | > 10 µM | – | – | – | – | – | – | – | – | – | – | –
3 | OCCCSCCO | > 100 µM | > 100 µM | > 100 µM | > 100 µM | > 100 µM | > 100 µM | > 100 µM | > 100 µM | > 100 µM | > 100 µM | – | – | – | – | – | – | – | – | – | –
4 | Nc1cc(S(=O)(=O)O)cc2ccc(S(=O)(=O)O)cc12 | > 100 µM | > 100 µM | > 100 µM | > 100 µM | > 100 µM | > 100 µM | > 100 µM | > 100 µM | > 100 µM | > 100 µM | – | – | – | – | – | – | – | – | – | –
5 | Nc1nnc(CCC(=O)Nc2cc(Cl)ccc2Cl)n1N | > 100 µM | > 100 µM | > 100 µM | – | > 100 µM | > 100 µM | > 100 µM | > 100 µM | > 100 µM | > 100 µM | – | – | – | – | – | – | – | – | – | –
6 | CS(C)(=O)=Nn1c(=O)n2n(c1=O)C1c3ccccc3C2c2ccccc21 | > 100 µM | > 100 µM | > 100 µM | > 100 µM | > 100 µM | > 100 µM | > 100 µM | > 100 µM | > 100 µM | > 100 µM | – | – | – | – | – | – | – | – | – | –
7 | Cc1n[n+]([O-])c(C)cc1[N+](=O)[O-] | 42.7 µM | 9.32 µM | – | 65.2 µM | 6.31 µM | 45.4 µM | 27.6 µM | 26.3 µM | 25.6 µM | 29.7 µM | – | – | – | – | – | – | – | – | – | –
8 | CC1C(=O)c2cc3c(cc2CCN(C)Cc2c1ccc1c2OCO1)OCO3 (stereo not given) | > 75 µg/mL | > 75 µg/mL | > 75 µg/mL | > 75 µg/mL | > 75 µg/mL | > 75 µg/mL | > 75 µg/mL | > 75 µg/mL | > 75 µg/mL | – | > 75 µg/mL | 22 µg/mL | > 75 µg/mL | 24 µg/mL | 34.6 µg/mL | > 75 µg/mL | > 75 µg/mL | 26.2 µg/mL | 34.6 µg/mL | –
9 | COc1cccc(/C=N/[N-]C(N)=O)c1[O-].[Ni+2].[OH3+] | 2.52 µM | 1.48 µM | 2.19 µM | – | 4.13 µM | 2.57 µM | 0.596 µM | 0.291 µM | 0.25 µM | 2.09 µM | – | – | – | – | – | – | – | – | – | –
10 | CCOC(=O)c1c(-c2cccc(Cl)c2)c(C(=O)OC)c(C)c2sc(C=O)nc12 | 28.8 µM | 37 µM | 43 µM | 37.5 µM | 46.4 µM | 31.9 µM | 31.3 µM | 34.4 µM | 32.5 µM | 37.8 µM | – | – | – | – | – | – | – | – | – | –
11 | N#Cc1ccccc1C#C/C=C\C#Cc1ccccc1N | – | > 100 µM | 0.634 µM | > 75.9 µM | > 93 µM | > 57.3 µM | 2.64 µM | > 100 µM | – | > 25.7 µM | – | 1.6 µM | 0.129 µM | 5.99 µM | 2.28 µM | 10 µM | 0.165 µM | 4.8 µM | 2.94 µM | 4.79 µM
12 | COc1cc(C2c3cc4c(cc3[C@@H](Nc3ccc(Oc5ccccc5)cc3)C3COC(=O)[C@H]23)OCO4)cc(OC)c1O (stereo not given in full) | 4.15 µM | 4.38 µM | 6.76 µM | – | 5.86 µM | > 100 µM | > 100 µM | 13 µM | > 78.9 µM | > 100 µM | – | – | – | – | – | – | – | – | – | –
13 | Clc1ccc(Nc2nc(Nc3ccccc3)nc(Nc3ccc(-c4cc(-c5ccc(Cl)cc5)on4)cc3)n2)cc1 | > 100 µM | > 100 µM | 69.2 µM | > 100 µM | > 100 µM | 88.4 µM | > 100 µM | 32.5 µM | 36.7 µM | – | 18.4 µM | 11.8 µM | 15.3 µM | 8.4 µM | 18.7 µM | 3.14 µM | 27.4 µM | 11.9 µM | 16.2 µM | –
14 | Cc1oc(N)c(S(=O)(=O)c2cc3ccccc3n(O)c2=N)c1C | > 100 µM | – | > 100 µM | > 100 µM | > 100 µM | > 100 µM | > 100 µM | > 100 µM | > 100 µM | > 100 µM | – | – | – | – | – | – | – | – | – | –
15 | CC(=O)Nc1ccc(C(=O)NN2C(=O)C(Cl)C2c2cccc([N+](=O)[O-])c2)cc1 (stereo not given) | > 100 µM | > 100 µM | – | – | > 100 µM | – | > 100 µM | > 100 µM | > 100 µM | > 100 µM | – | – | – | – | – | – | – | – | – | –
16 | CC1=C[C@@H](C)C[C@]2(C)CC[C@H](O2)[C@]23CC[C@](CO)(C[C@H](O2)[C@@H]2O[C@@](C)(CC2=O)[C@@H](O)[C@H]2CC[C@@]4(CCC[C@@H](O4)[C@H](C)C(=O)O[C@H]4C[C@H]([C@]5(O)OCC[C@H](C)[C@@H]5O)O[C@H]4C=C1)O2)O3 | 0.041 µM | > 9.53 µM | 0.107 µM | > 10 µM | > 10 µM | – | 0.102 µM | 0.00377 µM | > 2.1 µM | 0.207 µM | – | – | – | – | – | – | – | – | – | –
17 | CCOCC(=O)N(C)c1cccc2c3c(n(C)c12)CCCCC3 | > 100 µM | > 100 µM | > 100 µM | – | – | > 100 µM | > 100 µM | > 100 µM | > 100 µM | – | – | – | – | – | – | – | – | – | – | –
